Here are results for two compounds from ChEMBL document CHEMBL3272117, “Synthesis of 1-(4-thio-beta-D-ribofuranosyl)-1,2,4-triazole-3-carboxamide” (J Med Chem, 1976).

The test system of assay [1] is Human alphaherpesvirus 1. Kind of assay: Antiviral activity against Herpes simplex virus type 1 infected in human KB cells. The format is functional, organism-based.
In assay [2] the test system is KB. Kind of assay: Antiviral activity against Rhinovirus type 13 infected in human KB cells. The format is functional, cell-based. To be noted: Human rhinovirus A13.
Assay [3] deals with Human respirovirus 3. Kind of assay: Antiviral activity against Parainfluenza virus type 3 infected in human KB cells. The format is functional, organism-based.

SMILES strings stand for the structures. Calls of active or inactive are those of the source. No cut-off for these calls is given here.

As to `NC(=O)c1ncn([C@@H]2S[C@H](CO)[C@@H](O)[C@H]2O)n1`, the result in assay [1] was Active.

With `NC(=O)c1ncn([C@@H]2O[C@H](CO)[C@@H](O)[C@H]2O)n1`, the result in assay [2], in assay [1] and in assay [3] was Active.
